Values of other authors, collected in patent US20120016124A1, “SEROTONIN REUPTAKE INHIBITORS” (Baylor University, priority 2007, published 2012).
Read-outs that look alike come from different tables or passages of the source.

How the values were obtained:
[1] = molecular target: 5-HT2A (Homo sapiens, UniProt P28223); details: cited from earlier work
[2] = molecular target: SERT (Homo sapiens, UniProt P31645); details: reference compounds, Orjales, cited from earlier work

Measured: Ki

Chain of SERT (P31645 whole entry, species assumed): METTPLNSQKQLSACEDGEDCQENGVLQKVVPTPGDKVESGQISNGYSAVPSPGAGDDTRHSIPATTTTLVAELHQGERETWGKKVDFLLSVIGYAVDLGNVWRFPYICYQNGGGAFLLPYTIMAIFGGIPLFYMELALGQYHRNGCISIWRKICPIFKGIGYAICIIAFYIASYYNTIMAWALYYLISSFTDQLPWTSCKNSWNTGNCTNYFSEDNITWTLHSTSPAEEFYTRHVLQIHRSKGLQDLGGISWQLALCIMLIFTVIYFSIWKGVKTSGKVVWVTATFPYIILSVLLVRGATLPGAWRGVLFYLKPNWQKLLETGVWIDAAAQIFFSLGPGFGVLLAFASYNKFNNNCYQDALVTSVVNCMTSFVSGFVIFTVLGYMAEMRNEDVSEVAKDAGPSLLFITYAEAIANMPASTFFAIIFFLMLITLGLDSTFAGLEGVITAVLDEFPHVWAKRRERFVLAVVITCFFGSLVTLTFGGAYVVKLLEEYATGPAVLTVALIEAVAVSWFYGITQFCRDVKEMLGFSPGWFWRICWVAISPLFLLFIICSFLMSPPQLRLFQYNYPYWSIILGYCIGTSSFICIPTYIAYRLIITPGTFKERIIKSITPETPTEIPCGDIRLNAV
Chain of 5-HT2A (P28223 whole entry, species assumed): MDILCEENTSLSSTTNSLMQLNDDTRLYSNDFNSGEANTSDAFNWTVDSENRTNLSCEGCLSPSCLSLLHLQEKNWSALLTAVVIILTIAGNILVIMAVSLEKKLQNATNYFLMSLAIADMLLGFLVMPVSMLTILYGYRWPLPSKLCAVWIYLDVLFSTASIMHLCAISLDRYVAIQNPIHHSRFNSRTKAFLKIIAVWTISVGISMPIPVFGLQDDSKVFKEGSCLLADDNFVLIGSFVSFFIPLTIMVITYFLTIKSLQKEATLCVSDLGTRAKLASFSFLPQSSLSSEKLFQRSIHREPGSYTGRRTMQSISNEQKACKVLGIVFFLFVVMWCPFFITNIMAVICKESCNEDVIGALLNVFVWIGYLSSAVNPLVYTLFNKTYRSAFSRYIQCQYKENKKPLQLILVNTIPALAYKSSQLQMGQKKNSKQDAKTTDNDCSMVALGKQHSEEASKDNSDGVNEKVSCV

CCCN(CCC)C1CCc2cccc(O)c2C1 (stereo not shown) [Compound 8-OH-DPAT]
> 1000 nM: [1] | [2]; Table 5, et al. 2003 | [2]; Table 7, et. al., 2003 | [2]; Table 8, et. al., 2003
